Results: publication PMC8143347, “Metabolism and Interspecies Variation of IMMH-010, a Programmed Cell Death Ligand 1 Inhibitor Prodrug” (Pharmaceutics, 2021)
Values belong to the compound of their own block, whether it stands above or below them.

What was measured:
[1] = Metabolism in human intestinal microsomes; type: in vitro ADME; conditions: NADPH-dependent
Description: (§1) To compare the differences in IMMH-010 metabolism between the liver and intestine, IMMH-010 (10 μM) was incubated with rat liver and intestinal S9 homogenate protein (1 mg protein/mL) and with human liver and intestinal microsomes (0.2 mg protein/mL) in a final volume of 0.2 mL Tris-HCl buffer (50 mM, pH 7.4) containing 5 mM MgCl2. The incubations were performed in duplicate in the presence and absence of an NADPH regenerating system. After 2 min preincubation at 37 °C, reactions were initiated by the addition of IMMH-010 (10 μM). Incubations were terminated by acetonitrile at 0, 10, and 20 min. IMMH-010, YPD-29B, M2, and M3 were quantified by LC-MS/MS assay. Midazolam (10 μM, a substrate of CYP3A4) was set as the positive control.

[2] = system: cDNA-expressed human CYPs and FMOs; test: IMMH-010 metabolism by cDNA-expressed human CYPs and FMOs; type: in vitro ADME; conditions: IMMH-010 10 µM, 50 pmol enzyme, 30 min, NADPH
Description: cDNA-expressed human CYPs were also used to investigate the enzymes mediating IMMH-010 metabolism. IMMH-010 (10 µM) was incubated individually with 50 pmol of 10 individual cDNA-expressed human CYPs (CYP1A1, CYP1A2, CYP2A6, CYP2B6, CYP2C9, CYP2C19, CYP2D6, CYP2E1, CYP2J2, or CYP3A4) and three cDNA-expressed human FMO enzymes (FMO1, FMO3, and FMO5) at 37 °C for 30 min. An NADPH regeneration system was added to initiate the reactions. Probe substrates of the CYPs were used as the positive controls. Incubations without NADPH served as the negative controls. All reactions were carried out in a final volume of 0.2 mL Tris-HCl buffer (50 mM, pH 7.4) containing 5 mM MgCl2 and conducted in triplicate. All incubations were terminated by 2 volumes of acetonitrile. After centrifugation at 14,000 rpm for 5 min, the samples were analyzed by LC-MS/MS.

[3] = Metabolism in human liver microsomes; type: in vitro ADME; conditions: NADPH-dependent
Description: as §1

[4] = Identification of IMMH-010 metabolites in rat urine, bile and feces; type: in vivo; conditions: after oral IMMH-010 maleate 5 mg/kg
Description: After oral administration of IMMH-010 maleate (5 mg/kg), two rats were housed in metabolic cages to collect urine and feces samples for 24 h. Feces samples were homogenized with methanol at 1:10 (w/v) and urine samples were diluted 10-fold in methanol. Additionally, two rats were bile duct cannulated under isoflurane anesthesia. After oral administration of IMMH-010 maleate (5 mg/kg), bile samples were collected over 0–2 h after dosing.
LC-MS was performed using a Thermo Scientific Q Exactive HF hybrid quadrupole-Orbitrap mass spectrometer. Reverse-phase liquid chromatography was performed on a Zorbax C18 column (100 × 2.1 mm, 3.5 μm). Mobile phase A was 0.1% aqueous formic acid and mobile phase B was 0.1% formic acid in methanol. The mobile phase was delivered with the following gradient elution profile: 0 min, 10% B; 15 min, 40% B; 17–19 min, 100% B; 20–23 min, 10% B. The total runtime for each injection was 23 min. The flow rate was 0.3 mL/min, and the column oven was maintained at 30 °C.
The analysis was performed in full mass spectrometry with data-dependent tandem mass spectrometry (MS/dd-MS^2) mode. For a full mass spectrometry scan, the selected scan range was from m/z 100 to 500, the resolution was 70,000, and the automatic gain control (AGC) target was set to 1.0 × 10^6 with a maximum injection time (IT) of 100 ms. For the dd-MS^2 scan, the fragmentation mass spectra were recorded at a mass resolving power of 17,500 fwhm with a quadrupole isolation window of 1.5 m/z for precursor ions. The AGC target was 2.0 × 10^5 and the maximum IT was 50 ms.
Xcalibur 4.1 software (Thermo Fisher Scientific, San Jose, CA, USA) was used for instrument control and data processing. Compound Discover 2.0 software was used for metabolite identification.

[5] = Metabolism in human liver S9 fractions; type: in vitro ADME; conditions: human, monkey, dog and rat liver S9 incubations of IMMH-010 10 μM
Description: IMMH-010 metabolism was compared in human, monkey, dog, and rat liver S9 homogenates. IMMH-010 (10 μM) was incubated with liver S9 homogenate protein (0.5 mg protein/mL) and a reduced nicotinamide adenine dinucleotide phosphate (NADPH) regenerating system in a final volume of 0.2 mL Tris-HCl buffer (50 mM, pH 7.4) containing 5 mM MgCl2. The reactions were performed in triplicate. After 2 min of preincubation at 37 °C, reactions were initiated by the addition of IMMH-010 (10 μM). The samples were collected 0, 5, 10, and 20 min after incubation, 2 volumes of acetonitrile were added to terminate the reaction. After vortexing and centrifugation, IMMH-010, YPD-29B, M3, and M4 in the supernatant were analyzed by LC-MS/MS.
(§2) All statistics were calculated using GraphPad Prism 8.0 software (San Diego, CA, USA) designed for one-way ANOVA. Pharmacokinetic parameters were calculated with a non-compartmental analysis using WinNonlin Version 6.3 (Pharsight, Mountain View, CA, USA). ADMET predictor V10.0 (Simulations Plus, Inc., Lancaster, CA, USA) and Microsoft Excel (Microsoft, Redmond, WA, USA) were used to process the data (i.e., half-life (t1/2) and hepatic clearance (CLhep) determination). Data were expressed as means ± standard deviations (SD). Results were considered statistically significant if the p-value <0.05, <0.01 and <0.001.

[6] = Plasma and tumor PK in MC38 colon cancer xenograft mice; type: in vivo, mouse
Description: (§3) After the final dose, tumor and blood samples treated with IMMH-010 maleate (5 mg/kg) were collected over 72 h. Blood was exposed in an EP tube containing 500 mM NaF and 0.5% heparin sodium. Plasma samples were obtained by centrifugation, and tumor tissues were homogenized with 3 volumes (w/v) of saline on ice. The concentration of IMMH-010 and YPD-29B in plasma and tumor samples was quantitated by an LC-MS/MS method.
(§4) LC-MS/MS was performed using a triple quadrupole mass spectrometer (API 4000, AB Sciex, Framingham, MA, USA) with an ultra-performance liquid chromatography system (LC-30A, Shimadzu, Kyoto, Japan). Analyst 1.6.2 software (AB Sciex) was used for data acquisition and analysis. Mobile phase A was 1 mM ammonium acetate and mobile phase B was methanol. The mobile phase was delivered with the following gradient elution profile: 0–2.8 min, 70% B; 2.9 min, 85% B; 3 min, 90% B; 3.1–6.8 min, 100% B; 6.9–12 min, 70% B. The flow rate was 0.3 mL/min, and the column oven was maintained at 35 °C. The specific transitions monitored were 641.3 → 494.2 for IMMH-010, 597 → 155 for YPD-29B, 512 → 247 for M3, and 524 → 246 for M4.
as §2

[7] = Plasma and tumor PK in B16F10 melanoma xenograft mice; type: in vivo, mouse
Description: as §3, §4, §2

[8] = PK study in male cynomolgus monkeys; type: in vivo, cynomolgus monkey; conditions: single oral IMMH-010 maleate 5 mg/kg
Description: IMMH-010 maleate was suspended with 0.5% carboxymethyl cellulose to make a 1 mg/mL suspension for PO gavage. Four male cynomolgus monkeys received a single oral dose of IMMH-010 maleate (5 mg/kg). Serial blood samples were collected upto 48 h. The plasma was separated and the plasma concentrations of IMMH-010 and YPD-29B were determined by LC-MS/MS.
as §4, §2

[9] = Body weight in MC38 model; conditions: MC38, CTX 40 mg/kg weekly
Description: (§5) The antitumor activity of IMMH-010 was evaluated by B16F10 melanoma and MC38 colon carcinoma xenograft models. The B16F10 and MC38 cells were resuspended in saline (1.5 × 10^6 cells/0.2 mL saline) and injected subcutaneously into the right flanks of each mouse on day 0. The treated mice received once-daily oral administration of IMMH-010 maleate (1.25, 2.5, 5, and 10 mg/kg, n = 10) by oral gavage (PO) for 19 consecutive days, whereas the control mice received vehicle (0.5% carboxymethyl cellulose, n = 10). The mice in the positive control group received the anti-mouse PD-L1 antibody (696618M2, Bio X Cell, West Lebanon, NH, USA) at 10 mg/kg intraperitoneally every 3 days (n = 10). The first-line antineoplastic drug cyclophosphamide (CTX) was administered at doses of 80 and 40 mg/kg weekly in the B16F10 and MC38 models (n = 10), respectively. After the last treatment, on day 19, the mice were sacrificed, and the tumor and spleen were stripped and weighed. The tumor growth inhibition (TGI) was calculated as TGI = (1 − treatment group tumor weight/vehicle group tumor weight) × 100.

[10] = Body weight in B16F10 model; conditions: B16F10, CTX 80 mg/kg weekly
Description: as §5

B16F10 melanoma = test: Antitumor activity in B16F10 melanoma xenograft model; type: in vivo, mouse; conditions: B16F10, CTX 80 mg/kg weekly, day 19
Description: as §5

MC38 colon carcinoma = test: Antitumor activity in MC38 colon carcinoma xenograft model; type: in vivo, mouse; conditions: MC38, CTX 40 mg/kg weekly, day 19
Description: as §5

Compound: O=Cc1cc(Cl)c(OCc2cccc(-c3ccccc3)c2Br)cc1OCc1cccnc1 [M2]
transformation ratio of IMMH-010 to this metabolite [1]: < 2%
enzyme with the highest metabolic activity for formation of the metabolite [2]: CYP2D6
transformation ratio of IMMH-010 to this metabolite [3]: < 2%
metabolite in rat feces and bile [4]: detected

Compound: O=P1(N(CCCl)CCCl)NCCCO1 (stereo not drawn) [CTX, cyclophosphamide, reference compound]
Body Weight (g) X ± SD Finish ([9]; finish day 19): 24.5 ± 0.9 g
Body Weight (g) X ± SD Start ([9]; start): 22.0 ± 0.8 g
Body Weight (g) X ± SD Finish ([10]; finish day 19): 19.2 ± 0.8 g
Body Weight (g) X ± SD Start ([10]; start): 16.94 ± 0.43 g
Tumor Weight (g) X ± SD (B16F10 melanoma): 0.23 ± 0.18 g
Tumor Weight TGI (%) (B16F10 melanoma): 90%
Tumor Weight (g) X ± SD (MC38 colon carcinoma): 0.17 ± 0.10 g
Tumor Weight TGI (%) (MC38 colon carcinoma): 90%

Compound: O=C(O)c1cc(Cl)c(OCc2cccc(-c3ccccc3)c2Br)cc1OCc1cccnc1 [M4]
formation of the metabolite in CYP and FMO incubations [2]: not detected
amount of minor metabolite formed [5]: < 3%
metabolite in rat feces and bile [4]: detected

The next lines start with the values.

transformation ratio of IMMH-010 to this metabolite [1]: < 2%
enzyme with the highest metabolic activity for formation of the metabolite [2]: CYP2D6
amount of minor metabolite formed [5]: < 3%
transformation ratio of IMMH-010 to this metabolite [3]: < 2%
metabolite in rat feces and bile [4]: detected
Compound: OCc1cc(Cl)c(OCc2cccc(-c3ccccc3)c2Br)cc1OCc1cccnc1 [M3]

half-life ([6]; C57BL/6, mouse, plasma, IMMH-010 maleate 5 mg/kg PO, read-out: elimination half-life (t1/2β) in plasma (converted)): 1.76 h
Tmax ([6]; C57BL/6, mouse, plasma, IMMH-010 maleate 5 mg/kg PO, read-out: mean time of peak plasma concentration (converted)): 0.25 h
Cmax ([6]; C57BL/6, mouse, plasma, after last oral dose of IMMH-010 maleate 5 mg/kg for 19 days, read-out: mean peak concentration (Cmax) in plasma): 64.4 ng/mL
Kp ([6]; C57BL/6, mouse, tumor and plasma, IMMH-010 maleate 5 mg/kg PO, read-out: tissue/plasma ratio (AUCtumor/AUCplasma)): 2.4
half-life ([6]; C57BL/6, mouse, tumor, IMMH-010 maleate 5 mg/kg PO, read-out: t1/2β in tumor (converted)): 45 h
Tmax ([6]; C57BL/6, mouse, tumor, IMMH-010 maleate 5 mg/kg PO, read-out: time of maximum concentration in the tumor): 0.25 to 1 h
area under the plasma concentration versus time curve (AUC) ([6]; IMMH-010 maleate 5 mg/kg PO): ~69.9 ng·h/mL
area under the plasma concentration versus time curve (AUC) ([7]; B16F10 mice, IMMH-010 maleate 5 mg/kg PO): ~69.9 ng·h/mL
half-life ([7]; C57BL/6, mouse, plasma, B16F10 mice, IMMH-010 maleate 5 mg/kg PO, read-out: elimination half-life (t1/2β) in plasma (converted)): 1.61 h
Tmax ([7]; C57BL/6, mouse, plasma, B16F10 mice, IMMH-010 maleate 5 mg/kg PO, read-out: mean time of peak plasma concentration (converted)): 0.25 h
Cmax ([7]; C57BL/6, mouse, plasma, B16F10 mice, after last oral dose of IMMH-010 maleate 5 mg/kg for 19 days, read-out: mean peak concentration (Cmax) in plasma): 42.6 ng/mL
Kp ([7]; C57BL/6, mouse, tumor and plasma, B16F10 mice, IMMH-010 maleate 5 mg/kg PO, read-out: tissue/plasma ratio (AUCtumor/AUCplasma)): 2.1
half-life ([7]; C57BL/6, mouse, tumor, B16F10 mice, IMMH-010 maleate 5 mg/kg PO, read-out: t1/2β in tumor (converted)): 12.4 h
Tmax ([7]; C57BL/6, mouse, tumor, B16F10 mice, IMMH-010 maleate 5 mg/kg PO, read-out: time of maximum concentration in the tumor): 0.25 to 1 h
t1/2β in tumors relative to plasma ([7]; range over B16F10 and MC38 xenograft mice): 7.6–25 times
metabolite in rat feces and bile [4]: detected
metabolite in rat urine ([4]; 24 h urine): found
AUC ([8]; cynomolgus monkey, plasma): 186 ng·h/mL
Cmax ([8]; cynomolgus monkey, plasma): 35.5 ng/mL
half-life ([8]; cynomolgus monkey, plasma, read-out: mean t1/2β in plasma (converted)): 9 h
Tmax ([8]; cynomolgus monkey, plasma, read-out: observed time to peak concentration): ≤ 1.5 h
molar AUC ratio of YPD-29B to IMMH-010 [8]: 4.17
Compound: O=C(O)[C@H](CO)NCc1cc(Cl)c(OCc2cccc(-c3ccccc3)c2Br)cc1OCc1cccnc1 [YPD-29B]
